In patent US6476263B1, “Compounds for inhibiting β-amyloid peptide release and/or its synthesis” (Elan Pharmaceuticals, Inc., priority 1996, dated 2002):

Structure (SMILES)	melting point
COC(=O)[C@H](Cc1cscn1)NC(=O)[C@H](C)NC(=O)Cc1cc(F)cc(F)c1 [Example 31, Methyl N-[N-(3,5-Difluorophenylacetyl)-L-alaninyl]-(S)-2-amino-3-(thiazol-4-yl)propionate]	136 to 139 °C
CC(C)C(NC(=O)Cc1cc(F)cc(F)c1)C(=O)NC(=O)C(N)c1ccccc1 (mixture of isomers) [Example 249, N-[N-(3,5-Difluorophenylacetyl)-D,L-valinyl]-D,L-phenylglycinamide]	260.3 to 264.3 °C
COC(=O)[C@@H](NC(=O)[C@H](CC(C)C)NC(=O)Cc1cc(F)cc(F)c1)c1ccccc1 [Example 196, N-[N-(3,5-Difluorophenylacetyl)-L-leucinyl]-L-phenylglycine Methyl Ester]	178.4 °C
CC(C)(C)OC(=O)[C@@H](NC(=O)[C@@H](NC(=O)CC1CCCC1)c1ccccc1)c1ccccc1 [Example 265, N-[N-(Cyclopentylacetyl)-L-phenylglycinyl]-L-phenylglycine tert-Butyl Ester]	190.8 °C
COC(=O)[C@@H](NC(=O)[C@H](C)NC(=O)Cc1cc(F)cc(F)c1)c1ccccc1 [Example 111, N-[N-(3,5-Difluorophenylacetyl)-L-alaninyl]-L-phenylglycine Methyl Ester]	198 to 200 °C
CCCCCC=CCCC(=O)N[C@@H](C)C(=O)N[C@@H](Cc1ccccc1)C(=O)OC [Example 12, N-[N-(Dec-4-enoyl)-L-alaninyl]-L-phenylalanine Methyl Ester]	115.5 to 117.5 °C
COCC(NC(=O)[C@H](C)NC(=O)Cc1cc(F)cc(F)c1)C(=O)OC (stereo partly drawn) [Example 24, Methyl N-[N-(3,5-Difluorophenylacetyl)-L-alaninyl]-2-amino-3-methoxypropionate]	165 to 168 °C
CCOC(=O)[C@H](CO)NC(=O)[C@H](C)NC(=O)Cc1cccc([N+](=O)[O-])c1 [Example 117, N-[N-(3-Nitrophenylacetyl)-L-alaninyl]-L-serine Ethyl Ester]	179 to 181 °C
COC(=O)[C@H](Cc1cccnc1)NC(=O)[C@H](C)NC(=O)Cc1cc(F)cc(F)c1 [Example 20, Methyl N-[N-(3,5-Difluorophenylacetyl)-L-alaninyl]-(S)-2-amino-3-(3-pyridyl)propionate]	101 to 103 °C
CC[C@H](C)[C@H](NC(=O)CC(C)C)C(=O)N[C@@H](C)C(=O)OCC(C)C [Example 82, N-[N-(Isovaleryl)-L-isoleucinyl]-L-alanine iso-butyl Ester]	142 to 146 °C
COC(=O)[C@@H](NC(=O)[C@@H](NC(=O)Cc1cc(F)cc(F)c1)c1ccsc1)c1ccccc1 [Example 258, N-[N-(3,5-Difluorophenylacetyl)-(S)-2-amino-2-(thien-3-yl)acetyl]-L-phenylglycine Methyl Ester]	229.3 °C
COC(=O)[C@H](CCCCN(C)C)NC(=O)[C@H](C)NC(=O)Cc1cc(F)cc(F)c1 [Example 18, Methyl N-[N-(3,5-Difluorophenylacetyl)-L-alaninyl]-(S)-2-amino-6-(N,N-dimethylamino)hexanoate]	123 to 126 °C
COC(=O)[C@@H](NC(=O)[C@H](Cc1ccccc1)NC(=O)[C@H](C)NC(=O)Cc1cc(F)cc(F)c1)c1ccccc1 [Example 109, N-[N-[N-(3,5-Difluorophenylacetyl)-L-alaninyl]-L-phenylalaninyl]-L-phenylglycine Methyl Ester]	203 to 207 °C
CCOC(=O)C(NC(=O)[C@H](C)NC(=O)Cc1cc(F)cc(F)c1)c1cccnc1 (stereo partly drawn) [Example 53, Ethyl N-[N-(3,5-Difluorophenylacetyl)-L-alaninyl]-2-amino-2-(3-pyridyl)acetate]	146 to 157 °C
COC(=O)[C@H](Cc1ccc(O)cc1)NC(=O)[C@H](C)NC(=O)Cc1cc(F)cc(F)c1 [Example 15, N-[N-(3,5-Difluorophenylacetyl)-L-alaninyl]-L-tyrosine Methyl Ester]	85 to 88 °C
COC(=O)[C@@H](NC(=O)[C@@H](NC(=O)Cc1cc(F)cc(F)c1)C(C)(C)C)c1ccccc1 [Example 254, N-[N-(3,5-Difluorophenylacetyl)-L-tert-leucinyl]-L-phenylglycine Methyl Ester]	176.4 °C
CC(C)(C)OC(=O)[C@@H](NC(=O)[C@@H](NC(=O)CC1CC1)c1ccccc1)c1ccccc1 [Example 264, N-[N-(Cyclopropylacetyl)-L-phenylglycinyl]-L-phenylglycine tert-Butyl Ester]	187.5 °C
COC(=O)[C@H](Cc1c[nH]cn1)NC(=O)[C@H](C)NC(=O)Cc1cc(F)cc(F)c1 [Example 2, N-[N-(3,5-Difluorophenylacetyl)-L-alaninyl]-L-histidine Methyl Ester]	195 to 197 °C
COC(=O)[C@@H](NC(=O)[C@H](Cc1ccccc1)NC(=O)Cc1cc(F)cc(F)c1)c1ccccc1 [Example 197, N-[N-(3,5-Difluorophenylacetyl)-L-phenylalaninyl]-L-phenylglycine Methyl Ester]	188.3 °C
COC(=O)[C@@H](NC(=O)[C@@H](NC(=O)Cc1cc(F)cc(F)c1)C(C)C)c1ccccc1 [Example 194, N-[N-(3,5-Difluorophenylacetyl)-L-valinyl]-L-phenylglycine Methyl Ester]	226.5 °C
CC(C)[C@H](NC(=O)Cc1cc(F)cc(F)c1)C(=O)N[C@H](C(=O)OC(C)(C)C)c1ccccc1 [Example 192, N-[N-(3,5-Difluorophenylacetyl)-L-valinyl]-L-phenylglycine tert-Butyl Ester]	170.5 to 171.8 °C
C[C@H](NC(=O)Cc1cc(F)cc(F)c1)C(=O)N[C@H](C(=O)OCC(C)(C)C)c1ccccc1 [Example 138, N-[N-(3,5-Difluorophenylacetyl)-L-alaninyl]-L-phenylglycine Neopentyl Ester]	133 to 136 °C
CCOC(=O)C(NC(=O)[C@H](C)NC(=O)Cc1cc(F)cc(F)c1)c1ccccn1 (stereo partly drawn) [Example 65, Ethyl N-[N-(3,5-Difluorophenylacetyl)-L-alaninyl]-2-amino-2-(2-pyridyl)acetate]	123 to 125 °C
COC(=O)[C@H](Cc1ccccc1)NC(=O)[C@H](C)NC(=O)Cc1ccncc1 [Example 133, N-[N-(4-Pyridylacetyl)-L-alaninyl]-L-phenylalanine Methyl Ester]	152 to 154 °C
C[C@H](NC(=O)Cc1cc(F)cc(F)c1)C(=O)NCC(=O)OCCc1ccccc1 [Example 45, N-[N-(3,5-Difluorophenylacetyl)-L-alaninyl]glycine 2-Phenylethyl Ester]	154 to 155.2 °C
COC(=O)[C@H](Cc1ccccc1)NC(=O)[C@H](C)NC(=O)CC1=CCCCC1 [Example 69, N-[N-(Cyclohex-1-enylacetyl)-L-alaninyl]-L-phenylalanine Methyl Ester]	139 to 142 °C
CC(C)COC(=O)[C@H](C)NC(=O)[C@@H](NC(=O)[C@@H](NC(=O)CC(C)C)C(C)C)c1ccccc1 [Example 83, N-[N-[N-(Isovaleryl)-L-valinyl]-L-phenylglycinyl]-L-alanine iso-butyl Ester]	217 to 221 °C
